# In ChEMBL document CHEMBL1201862, “PubChem BioAssay data set” (2004):
# “And” between values parts separate entries of the source, which are not always exact repeats. Equal values may be shown once.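 Step 1: Grow cells in 96-well plates. Step 2: Expose to compound for 48 hours at 5 concentrations. Step 3: Interpolate endpoints linearly; if unreached, use highest concentration. At the GI50, growth is halved.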 The source made the active and inactive calls. Rule as the data show it: active = GI50 up to about 1.1 µM and inactive = higher.
# Columns and labels:
# Test in all cases: DTP human tumour cell line panel, 48 h
# HOP-92 = test system: HOP-92
# SNB-19 = test system: SNB-19
# MDA-N = test system: MDA-N
# HT-29 = test system: HT-29
# T47D = test system: T47D
# SK-MEL-2 = test system: SK-MEL-2
# SF-539 = test system: SF-539
# RXF 393 = test system: RXF 393
# MCF7 = test system: MCF7
# UO-31 = test system: UO-31
# CAKI-1 = test system: CAKI-1
# HCT-15 = test system: HCT-15
# LOX IMVI = test system: LOX IMVI
# Malme-3M = test system: Malme-3M
# EKVX = test system: EKVX
# BT-549 = test system: BT-549
# OVCAR-3 = test system: OVCAR-3
# K562 = test system: K562
# SR = test system: SR
SMILES,GI50 (HOP-92),GI50 (SNB-19),GI50 (MDA-N),GI50 (HT-29),GI50 (T47D),GI50 (SK-MEL-2),GI50 (SF-539),GI50 (RXF 393),GI50 (MCF7),GI50 (UO-31),GI50 (CAKI-1),GI50 (HCT-15),GI50 (LOX IMVI),GI50 (Malme-3M),GI50 (EKVX),GI50 (BT-549),GI50 (OVCAR-3),GI50 (K562),GI50 (SR)
COC(=O)C1(C(=O)OC)CC2=C(S(=O)(=O)c3ccccc3)C[C@H](C#N)[C@H]2C1,69.8 µM (inactive),64.6 µM (inactive),79.4 µM (inactive),> 100 µM (inactive),57.5 µM (inactive),> 100 µM (inactive),> 100 µM (inactive),> 100 µM (inactive),24 µM (inactive),> 100 µM (inactive),> 100 µM (inactive),40.6 µM,> 100 µM (inactive),> 100 µM (inactive),> 100 µM (inactive),–,–,–,–
Cc1n[n+]([O-])c(C)cc1[N+](=O)[O-],16.8 µM (inactive),39.4 µM (inactive),–,14.1 µM (inactive),17.4 µM (inactive),20.1 µM (inactive),27.6 µM (inactive),25.2 µM (inactive),17.3 µM (inactive),16.2 µM (inactive),–,15.9 µM,20.9 µM (inactive),20.9 µM (inactive),23.5 µM (inactive),24.7 µM (inactive),14.5 µM (inactive),–,–
O=C1CC(NCc2ccccc2)c2c(Cl)sc(Cl)c21 (centres undefined),34.8 µM (inactive),33.7 µM (inactive),–,28.2 µM (inactive),73.1 µM (inactive),19.5 µM (inactive),27.2 µM (inactive),–,14 µM (inactive),31.4 µM (inactive),23.2 µM (inactive),20.1 µM,5.05 µM (inactive),18.5 µM (inactive),37.5 µM (inactive),31 µM (inactive),20 µM (inactive),16.6 µM (inactive),3.2 µM (inactive)
COc1cc2c(cc1OC)C1Cc3ccccc3CN1CCC2 (centres undefined),92.9 µM (inactive),> 100 µM (inactive),45 µM (inactive),66.8 µM (inactive),63.7 µM (inactive),> 100 µM (inactive),> 100 µM (inactive),> 100 µM (inactive),> 100 µM (inactive),–,> 100 µM (inactive),> 100 µM,> 100 µM (inactive),> 100 µM (inactive),> 100 µM (inactive),–,> 100 µM (inactive),50 µM (inactive),> 100 µM (inactive)
O[C@H]1[C@H](O)[C@@H](O)[C@@]2(O)C[C@@H](O)[C@@H]1N2,> 100 µM (inactive),> 100 µM (inactive),> 100 µM (inactive),> 100 µM (inactive),> 100 µM (inactive),–,> 100 µM (inactive),> 100 µM (inactive),> 100 µM (inactive),85.7 µM (inactive),–,> 100 µM,> 100 µM (inactive),> 100 µM (inactive),> 100 µM (inactive),–,> 100 µM (inactive),> 100 µM (inactive),> 100 µM (inactive)
CC(=O)O[C@@]1(C)[C@@H](C)C(=O)O[C@@H]2CCN3CC=C(COC(=O)[C@]1(C)O)[C@H]23,> 100 µM (inactive),> 100 µM (inactive),–,> 100 µM (inactive),–,> 100 µM (inactive),> 100 µM (inactive),–,–,> 100 µM (inactive),> 100 µM (inactive),> 100 µM,–,> 100 µM (inactive),–,–,> 100 µM (inactive),> 100 µM (inactive),> 100 µM (inactive)
Nc1c(Br)cc(-c2cc(Br)c(N)c(Br)c2)cc1Br,> 100 µM (inactive),> 100 µM (inactive),> 100 µM (inactive),> 100 µM (inactive),> 100 µM (inactive),–,> 100 µM (inactive),33.6 µM (inactive),> 100 µM (inactive),> 100 µM (inactive),> 100 µM (inactive),–,> 100 µM (inactive),> 100 µM (inactive),> 100 µM (inactive),–,> 100 µM (inactive),> 100 µM (inactive),> 100 µM (inactive)
CC1=CC(=O)/C(=C/N2C(=O)CNC2=S)C(=O)O1,> 100 µM (inactive),> 100 µM (inactive),> 100 µM (inactive),> 100 µM (inactive),> 100 µM (inactive),> 100 µM (inactive),> 100 µM (inactive),–,> 100 µM (inactive),> 100 µM (inactive),> 100 µM (inactive),> 100 µM,> 100 µM (inactive),–,> 100 µM (inactive),–,> 100 µM (inactive),–,–
CN(CN1C(=O)C2Cc3ccccc3CN2C1=O)c1ccccn1 (centres undefined),–,> 100 µM (inactive),–,–,–,> 100 µM (inactive),> 100 µM (inactive),–,–,> 100 µM (inactive),> 100 µM (inactive),> 100 µM,> 100 µM (inactive),> 100 µM (inactive),–,–,> 100 µM (inactive),> 100 µM (inactive),> 100 µM (inactive)
C/C(=C\COP(=O)(O)OP(=O)(O)O)CC/C=C(\C)CNc1c(F)c(F)c(F)c(F)c1F,82.2 µM (inactive),> 100 µM (inactive),–,> 58.3 µM (inactive),> 100 µM (inactive),> 100 µM (inactive),97.1 µM (inactive),> 22.9 µM (inactive),> 100 µM (inactive),> 100 µM (inactive),> 100 µM (inactive),> 100 µM,> 100 µM (inactive),–,> 54.3 µM (inactive),–,> 100 µM (inactive),> 100 µM (inactive),0.0695 µM (active)
CC(=O)OCC1OC(n2c(C)c(C(C)=O)c(-c3ccco3)c(C#N)c2=S)C(OC(C)=O)C(OC(C)=O)C1OC(C)=O (centres undefined),15.6 µM (inactive),> 100 µM (inactive),> 100 µM (inactive),> 100 µM (inactive),> 100 µM (inactive),–,> 100 µM (inactive),> 100 µM (inactive),> 100 µM (inactive),< 0.01 µM (active),–,> 100 µM,64.3 µM (inactive),> 100 µM (inactive),> 100 µM (inactive),–,> 100 µM (inactive),> 100 µM (inactive) and 51.1 µM (inactive),> 100 µM (inactive)
O=C1/C(=C/c2ccc(Cl)cc2)N=C(c2ccccc2)N1C1Nc2cc3c(cc2S1)NC(N1C(=O)/C(=C/c2ccc(Cl)cc2)N=C1c1ccccc1)S3 (centres undefined),48.6 µM (inactive),–,45.2 µM (inactive),52.6 µM (inactive),28.8 µM (inactive),88.9 µM (inactive),> 100 µM (inactive),76.6 µM (inactive),42.2 µM (inactive),80.2 µM (inactive),> 100 µM (inactive),49 µM,31.7 µM (inactive),–,> 100 µM (inactive),–,49.8 µM (inactive),21.2 µM (inactive),6.18 µM (inactive)
O=C(NCc1ccccc1)c1cnc(Cl)cn1,13.7 µM (inactive),63.8 µM (inactive),–,33.2 µM (inactive),74 µM (inactive),48.1 µM (inactive),> 100 µM (inactive),> 100 µM (inactive),> 100 µM (inactive),18.1 µM (inactive),16.2 µM (inactive),23.1 µM,28.8 µM (inactive),34.3 µM (inactive),> 100 µM (inactive),–,31.2 µM (inactive),–,20.7 µM (inactive)
Cc1ccc(SCC(OCn2cnc3c(N)ncnc32)[C@H](C)F)cc1 (some centres undefined),54.5 µM (inactive),> 100 µM (inactive),–,> 100 µM (inactive),> 100 µM (inactive),> 100 µM (inactive),> 100 µM (inactive),–,> 100 µM (inactive),> 100 µM (inactive),> 100 µM (inactive),> 100 µM,> 100 µM (inactive),> 100 µM (inactive),–,40.9 µM (inactive),> 100 µM (inactive),–,> 100 µM (inactive)
c1cc2ccc3cc4ncccc4c4ccc(c1)c2c34,17.4 µM (inactive),90.8 µM (inactive),41.9 µM (inactive),23.2 µM (inactive),3.36 µM (inactive),16.6 µM (inactive),20.9 µM (inactive),46.8 µM (inactive),0.338 µM (active),5.43 µM (inactive),18.5 µM (inactive),7.73 µM,12.1 µM (inactive),70.8 µM (inactive),22.5 µM (inactive),–,82.2 µM (inactive),59.4 µM (inactive),< 0.01 µM (active)
COc1cc2c(cc1OCCCCN1CCN(CCCCOc3cc4c(cc3OC)C(=O)N3CCC[C@H]3C=N4)CC1)N=C[C@@H]1CCCN1C2=O,< 0.01 µM (active),–,–,0.0443 µM (active),< 0.0118 µM (active),0.0389 µM (active),< 0.01 µM (active),0.0676 µM (active),< 0.0318 µM (active),0.0798 µM (active),0.0318 µM (active),1.14 µM,–,0.031 µM (active),0.281 µM (active),0.0202 µM (active),0.0372 µM (active),0.0199 µM (active),1 µM (active)
COc1ccc(/C=C2/C(=O)N(/C=C3\C(=O)Oc4ccccc4C3=O)/C(=N/C(C)=O)N2C)cc1OC,–,–,> 100 µM (inactive),> 100 µM (inactive),> 100 µM (inactive),> 100 µM (inactive),> 100 µM (inactive),> 100 µM (inactive),> 100 µM (inactive),–,> 100 µM (inactive),> 100 µM,> 100 µM (inactive),> 100 µM (inactive),> 100 µM (inactive),–,0.143 µM (active),> 100 µM (inactive),> 100 µM (inactive)
CCS(=O)(=O)c1c2cc(OC)ccc2nc2ccc(OC)cc12,> 100 µM (inactive),> 100 µM (inactive),> 100 µM (inactive),> 100 µM (inactive),> 100 µM (inactive),> 100 µM (inactive),26.5 µM (inactive),> 100 µM (inactive),> 100 µM (inactive),> 100 µM (inactive),> 100 µM (inactive),> 100 µM,> 100 µM (inactive),> 100 µM (inactive),> 100 µM (inactive),–,> 100 µM (inactive),> 100 µM (inactive),> 100 µM (inactive)
